Experimental data reported in ChEMBL document CHEMBL1201862, “PubChem BioAssay data set” (2004).
Values joined by “and” are separate entries in the source; they are usually repeats but may differ in a detail not shown here. Equal values may be shown once.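 Dose response: 5 concentrations. Exposure: 48 h. Format: 96-well plates. Endpoint: linear interpolation; highest concentration if not reached. GI50 is the concentration that inhibits growth by half.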 Active and inactive are the calls of the source. Rule as the data show it: active = GI50 up to about 1.1 µM and inactive = higher.

Experiments:
Assay in all cases: DTP human tumour cell line panel, 48 h
[1] = system: ACHN
[2] = system: A498
[3] = system: OVCAR-4
[4] = system: M14
[5] = system: DLD-1
[6] = system: SK-MEL-28
[7] = system: LXFL 529
[8] = system: CCRF-CEM
[9] = system: SNB-78
[10] = system: U-251
[11] = system: OVCAR-8
[12] = system: HOP-92
[13] = system: HCC 2998
[14] = system: NCI-H522
[15] = system: OVCAR-5
[16] = system: SF-539
[17] = system: EKVX
[18] = system: SK-MEL-2
[19] = system: CAKI-1
[20] = system: K562
[21] = system: NCI-H23
[22] = system: RPMI-8226
[23] = system: UACC-62
[24] = system: IGROV-1
[25] = system: MOLT-4
[26] = system: SN12C
[27] = system: NCI-H460
[28] = system: M19-MEL
[29] = system: XF498
[30] = system: SW-620
[31] = system: A549
[32] = system: KM-20L2
[33] = system: SNB-19
[34] = system: COLO 205
[35] = system: HL-60
[36] = system: HOP-18
[37] = system: SF-268
[38] = system: NCI-H226
[39] = system: UACC-257
[40] = system: HCT-116
[41] = system: HOP-62
[42] = system: DMS-273
[43] = system: UO-31
[44] = system: KM12
[45] = system: HT-29
[46] = system: HCT-15
[47] = system: Malme-3M
[48] = system: SK-OV-3
[49] = system: SK-MEL-5
[50] = system: TK-10
[51] = system: SF-295
[52] = system: SR
[53] = system: OVCAR-3
[54] = system: SNB-75
[55] = system: 786-0
[56] = system: LOX IMVI
[57] = system: RXF 393
[58] = system: DMS-114
[59] = system: T47D
[60] = system: Hs-578T
[61] = system: DU-145
[62] = system: MDA-N
[63] = system: MCF7
[64] = system: MDA-MB-231
[65] = system: BT-549
[66] = system: MDA-MB-435
[67] = system: NCI/ADR-RES

CCc1cccc(C)c1N1C(=O)C(=O)C(c2nc3ccccc3o2)C(=O)C1=O
GI50 [1]: > 100 µM (inactive) | GI50 [2]: > 100 µM (inactive) | GI50 [3]: > 100 µM (inactive) | GI50 [4]: > 100 µM (inactive) | GI50 [5]: > 100 µM (inactive) | GI50 [6]: > 100 µM (inactive) | GI50 [7]: > 100 µM (inactive) | GI50 [8]: > 100 µM (inactive) | GI50 [9]: > 100 µM (inactive) | GI50 [10]: > 100 µM (inactive) | GI50 [11]: > 100 µM (inactive) | GI50 [12]: > 100 µM (inactive) | GI50 [13]: > 100 µM (inactive) | GI50 [14]: > 100 µM (inactive) | GI50 [15]: > 100 µM (inactive) | GI50 [16]: > 100 µM (inactive) | GI50 [17]: > 100 µM (inactive) | GI50 [18]: > 100 µM (inactive) | GI50 [19]: > 100 µM (inactive) | GI50 [20]: > 100 µM (inactive) | GI50 [21]: > 100 µM (inactive) | GI50 [22]: > 100 µM (inactive) | GI50 [23]: > 100 µM (inactive) | GI50 [24]: > 100 µM (inactive) | GI50 [25]: > 100 µM (inactive) | GI50 [26]: > 100 µM (inactive) | GI50 [27]: > 100 µM (inactive) | GI50 [28]: > 100 µM (inactive) | GI50 [29]: > 100 µM (inactive) | GI50 [30]: > 100 µM (inactive) | GI50 [31]: > 100 µM (inactive) | GI50 [32]: > 100 µM (inactive) | GI50 [33]: > 100 µM (inactive) | GI50 [34]: > 100 µM (inactive) | GI50 [35]: > 100 µM (inactive) | GI50 [36]: > 100 µM (inactive) | GI50 [37]: > 100 µM (inactive) | GI50 [38]: > 100 µM (inactive) | GI50 [39]: > 100 µM (inactive) | GI50 [40]: > 100 µM (inactive) | GI50 [41]: > 100 µM (inactive) | GI50 [42]: > 100 µM (inactive) | GI50 [43]: > 100 µM (inactive) | GI50 [44]: > 100 µM (inactive) | GI50 [45]: > 100 µM (inactive) | GI50 [46]: > 100 µM | GI50 [47]: > 100 µM (inactive) | GI50 [48]: > 100 µM (inactive) | GI50 [49]: > 100 µM (inactive) | GI50 [50]: > 100 µM (inactive) | GI50 [51]: > 100 µM (inactive) | GI50 [52]: > 100 µM (inactive) | GI50 [53]: > 100 µM (inactive) | GI50 [54]: 45.7 µM (inactive) | GI50 [55]: > 100 µM (inactive)

Clc1ccc(C(c2ccc(Cl)cc2)c2ccccn2)cc1
GI50 [1]: 18.1 µM (inactive) | GI50 [3]: 27.4 µM (inactive) | GI50 [4]: 21.1 µM (inactive) | GI50 [5]: 20.8 µM (inactive) | GI50 [6]: > 10 µM (inactive) | GI50 [7]: 17.7 µM (inactive) | GI50 [56]: 16.7 µM (inactive) | GI50 [8]: 21.5 µM (inactive) | GI50 [9]: 33.8 µM (inactive) | GI50 [10]: 17 µM (inactive) | GI50 [11]: 16.7 µM (inactive) | GI50 [12]: 15.8 µM (inactive) | GI50 [13]: 15.9 µM (inactive) | GI50 [14]: 21.4 µM (inactive) | GI50 [15]: 14.9 µM (inactive) | GI50 [16]: 18.7 µM (inactive) | GI50 [17]: 23 µM (inactive) | GI50 [57]: 14.5 µM (inactive) | GI50 [18]: 19 µM (inactive) | GI50 [19]: 23.2 µM (inactive) | GI50 [20]: 21.6 µM (inactive) | GI50 [21]: 31.6 µM (inactive) | GI50 [58]: 28.4 µM (inactive) | GI50 [22]: 28.8 µM (inactive) | GI50 [23]: 16.4 µM (inactive) | GI50 [24]: 37.8 µM (inactive) | GI50 [25]: 21.4 µM (inactive) | GI50 [26]: 17.3 µM (inactive) | GI50 [27]: 17.1 µM (inactive) | GI50 [28]: 31.4 µM (inactive) | GI50 [29]: 18.2 µM (inactive) | GI50 [30]: 20.1 µM (inactive) | GI50 [31]: 18.5 µM (inactive) | GI50 [32]: 14.4 µM (inactive) | GI50 [33]: 22.3 µM (inactive) | GI50 [35]: 20.6 µM (inactive) | GI50 [36]: 24.8 µM (inactive) | GI50 [37]: 23.5 µM (inactive) | GI50 [38]: 17.1 µM (inactive) | GI50 [39]: 18.8 µM (inactive) | GI50 [43]: 16.5 µM (inactive) | GI50 [44]: 19.1 µM (inactive) | GI50 [45]: 14.9 µM (inactive) | GI50 [46]: 17.3 µM | GI50 [47]: 19.1 µM (inactive) | GI50 [48]: 34.6 µM (inactive) | GI50 [49]: 17.1 µM (inactive) | GI50 [50]: 19.7 µM (inactive) | GI50 [51]: 19.1 µM (inactive) | GI50 [52]: 20.8 µM (inactive) | GI50 [53]: > 10 µM (inactive) | GI50 [54]: 44.9 µM (inactive) | GI50 [55]: 16.7 µM (inactive)

O=c1c(Cl)c(Cl)cnn1-c1ccccc1
GI50 [1]: 7.11 µM (inactive) and 5.04 µM (inactive) | GI50 [2]: 14.9 µM (inactive) and 17.1 µM (inactive) | GI50 [3]: 2.19 µM (inactive) and 1.53 µM (inactive) | GI50 [4]: 1.74 µM (inactive) and 1.76 µM (inactive) | GI50 [5]: 1.44 µM (inactive) and 2.35 µM (inactive) | GI50 [6]: 3.4 µM (inactive) and 2.3 µM (inactive) | GI50 [7]: 1.67 µM (inactive) and 1.71 µM (inactive) | GI50 [59]: 4.33 µM (inactive) and 2.44 µM (inactive) | GI50 [60]: 1.54 µM (inactive) and 2.56 µM (inactive) | GI50 [61]: 14.7 µM (inactive) and 12.5 µM (inactive) | GI50 [56]: 1.8 µM (inactive) and 1.19 µM (inactive) | GI50 [62]: 2.14 µM (inactive) and 1.81 µM (inactive) | GI50 [9]: 7.33 µM (inactive) | GI50 [10]: 3.51 µM (inactive) and 1.79 µM (inactive) | GI50 [11]: 3.85 µM (inactive) and 2.39 µM (inactive) | GI50 [63]: 4.07 µM (inactive) and 3.31 µM (inactive) | GI50 [64]: 1.77 µM (inactive) | GI50 [65]: 1.8 µM (inactive) and 1.73 µM (inactive) | GI50 [13]: 3.42 µM (inactive) and 3.85 µM (inactive) | GI50 [14]: 1.26 µM (inactive) and 1.84 µM (inactive) | GI50 [57]: 1.9 µM (inactive) and 2.52 µM (inactive) | GI50 [18]: 3.94 µM (inactive) and 3.28 µM (inactive) | GI50 [20]: 968 nM (active) and 929 nM (active) | GI50 [58]: 2.33 µM (inactive) and 1.56 µM (inactive) | GI50 [22]: 5.92 µM (inactive) and 7.26 µM (inactive) | GI50 [23]: 1.67 µM (inactive) and 2.21 µM (inactive) | GI50 [25]: 1.82 µM (inactive) and 1.47 µM (inactive) | GI50 [26]: 2.06 µM (inactive) and 3.85 µM (inactive) | GI50 [27]: 2.92 µM (inactive) and 3.72 µM (inactive) | GI50 [28]: 3.05 µM (inactive) and 3.13 µM (inactive) | GI50 [29]: 2.46 µM (inactive) | GI50 [66]: 1.79 µM (inactive) and 2.08 µM (inactive) | GI50 [31]: 20.3 µM (inactive) and 10.8 µM (inactive) | GI50 [35]: 893 nM (active) and 1.09 µM (active) | GI50 [67]: 2 µM (inactive) | GI50 [36]: 8.53 µM (inactive) and 5.19 µM (inactive) | GI50 [37]: 5.05 µM (inactive) and 6.64 µM (inactive) | GI50 [38]: 9.38 µM (inactive) and 9.14 µM (inactive) | GI50 [39]: 13 µM (inactive) and 6.85 µM (inactive) | GI50 [40]: 2.29 µM (inactive) and 1.75 µM (inactive) | GI50 [41]: 15 µM (inactive) and 8.49 µM (inactive) | GI50 [43]: 4.18 µM (inactive) and 3.56 µM (inactive) | GI50 [44]: 8.91 µM (inactive) and 7.94 µM (inactive) | GI50 [46]: 2.35 µM and 1.85 µM | GI50 [47]: 3.46 µM (inactive) and 3.02 µM (inactive) | GI50 [50]: 15.6 µM (inactive) and 9.33 µM (inactive) | GI50 [52]: 2.14 µM (inactive) and 1.61 µM (inactive) | GI50 [53]: 2.03 µM (inactive) and 1.99 µM (inactive) | GI50 [55]: 5.64 µM (inactive) and 4.79 µM (inactive)
